molecular target: T1, NLRP3 (Homo sapiens, UniProt Q96P20); assay: Measurement of IL-1β production in PMA-differentiated THP-1 cells (NLRP3 hIL1B); assay type: cell-based; conditions: read-out: NLRP3 hILIB IC50
T1 construct: host or cells: PMA-differentiated THP-1 cells
Procedure: Measurement of IL-1β Production in PMA-Differentiated THP-1 Cells
THP-1 cells were purchased from the American Type Culture Collection and sub-cultured according to instructions from the supplier. Prior to experiments, cells were cultured in RPMI 1640 containing 10% heat inactivated FBS, penicillin (100 units/ml) and streptomycin (100 μg/ml), and maintained in log phase prior to experimental setup. Prior to the experiment THP-1 were treated with PMA (Phorbol 12-myristate 13-acetate) ([…]) for 24 hours. The day of the experiment the media was removed and attaching cells were treated with trypsin for 2 minutes, cells were then collected, washed with PBS (phosphate buffer saline), spin down, resuspended in 2% heat inactivated FBS with RPMI at a concentration of 1×10^6 cells/ml, and 100 μl was plated in a 96 well plate. Compounds were dissolved in dimethyl sulfoxide (DMSO) and added to the culture medium to achieve desired concentration (e.g. 100, 30, 10, 3, 1, 0.3 or 0.1 μM). Cells were incubated with compounds for 4 hours. Cell free supernatant was collected and the production of IL-1β was evaluated by ELISA. A vehicle only control was run concurrently with each experiment. Final DMSO concentration was 1%.
Measurement of IL-1β Production in PMA-Differentiated THP-1 Cells (Alternative Procedure)
THP-1 cells were purchased from the American Type Culture Collection and sub-cultured according to instructions from the supplier. Prior to experiments, cells were cultured in RPMI 1640 containing 10% heat inactivated FBS, penicillin (100 units/ml), streptomycin (100 μg/ml), HEPES (10 mM) and sodium pyruvate (1 mM) and maintained in log phase prior to experimental setup. Prior to the experiment, THP-1 cells were treated with PMA (Phorbol 12-myristate 13-acetate) (20 μg/ml) overnight. The day of the experiment, the media was removed and attached cells were treated with trypsin for 2 minutes, cells were then collected, washed with PBS (phosphate buffer saline), pelleted by centrifugation and resuspended in 2% heat inactivated FBS with RPMI at a concentration of 50,000 cells/well in a 384 well plate. Cell free supernatant was collected and the production of IL-1β was evaluated by ELISA. Compounds were dissolved in dimethyl sulfoxide (DMSO) and added to the culture medium to achieve desired concentration (e.g. 100, 30, 10, 3, 1, 0.3 or 0.1 μM). Cells were incubated with compounds for 2 hours. A vehicle only control was run concurrently with each experiment. Final DMSO concentration was 1%.
Measurement of IL-1β Production—hTRF Protocol (Second Alternative Procedure)
Serial dilutions of compounds in DMSO were added to low volume 384 well plates at 100 nl/well using an ECHO 550 acoustic dispenser (Labcyte) to achieve final starting concentration of 10 μM in assay.
THP-1 cells in RPMI (Gibco, 11875) media with 10% FBS at a density of 1×10^6 cell/ml in a T175 flask were treated with a final concentration of phorbol 12-myristate 13-acetate (PMA) (Sigma, P1585) of 50 ng/ml overnight at 37° C. at 5% CO2 for differentiation. Cells were harvested the next day after rinsing well with dPBS using 0.5% trypsin. A cell solution was prepared of 1×10^6 cells/ml for 50,000 cells in 50 μl/well in RPMI media with 2% FBS. Cells were plated using a multichannel pipette onto the compound dilutions in Greiner, 384 well, black clear bottom tissue culture treated plates (781090). The plates were incubated in 37° C. incubator at 5% CO2 for 2 hours.
After the 2 hour incubation, the cell plates were spun in the centrifuge for 5 minutes at 1200 rpm. Using the Felix (CyBio), 8 μl of the supernatant was transferred to 384 well, low volume, white proxy plates. (Perkin Elmer, 6008230). A human IL1beta hTRF kit was used to analyze the supernatant (CISBIO, 62HIL1BPEG). The kit instructions were followed for preparing the IL1Beta standard curve and then the antibodies from the kit were diluted 1:40 rather than 1:20 as kit instructed. […]

T1 sequence (Q96P20 whole entry): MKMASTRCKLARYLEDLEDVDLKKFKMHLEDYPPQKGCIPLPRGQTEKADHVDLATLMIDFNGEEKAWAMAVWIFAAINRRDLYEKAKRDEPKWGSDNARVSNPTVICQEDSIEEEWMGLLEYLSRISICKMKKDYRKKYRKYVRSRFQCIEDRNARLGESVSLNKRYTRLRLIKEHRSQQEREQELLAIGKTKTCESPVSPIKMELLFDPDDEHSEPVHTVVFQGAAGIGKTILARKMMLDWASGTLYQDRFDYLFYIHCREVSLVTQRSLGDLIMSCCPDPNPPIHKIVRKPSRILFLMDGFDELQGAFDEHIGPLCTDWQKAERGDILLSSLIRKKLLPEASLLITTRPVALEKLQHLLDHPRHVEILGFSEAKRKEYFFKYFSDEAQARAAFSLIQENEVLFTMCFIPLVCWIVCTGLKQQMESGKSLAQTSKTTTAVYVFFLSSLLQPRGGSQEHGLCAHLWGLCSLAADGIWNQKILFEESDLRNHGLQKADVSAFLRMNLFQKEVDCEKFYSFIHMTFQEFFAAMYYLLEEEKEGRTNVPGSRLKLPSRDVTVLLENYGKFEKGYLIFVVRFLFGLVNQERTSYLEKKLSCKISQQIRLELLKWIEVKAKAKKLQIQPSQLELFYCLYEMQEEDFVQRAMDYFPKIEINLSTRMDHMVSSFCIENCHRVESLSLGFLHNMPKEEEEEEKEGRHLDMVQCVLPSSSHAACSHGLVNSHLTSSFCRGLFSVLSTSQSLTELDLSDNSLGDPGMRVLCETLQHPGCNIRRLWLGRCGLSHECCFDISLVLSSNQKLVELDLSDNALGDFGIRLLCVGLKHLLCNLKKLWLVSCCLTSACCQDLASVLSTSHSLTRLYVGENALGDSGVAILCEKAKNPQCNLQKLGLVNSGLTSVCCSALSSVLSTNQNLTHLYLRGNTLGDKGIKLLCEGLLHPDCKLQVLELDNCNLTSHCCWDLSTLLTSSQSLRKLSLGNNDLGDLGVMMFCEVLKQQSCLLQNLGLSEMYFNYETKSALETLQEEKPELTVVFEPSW

| Compound | IC50 [µM] |
| --- | --- |
| CC(C)n1c(CN2CC(C#N)C2)nc2c(N)nc3cc(-c4cc[nH]n4)ccc3c21 [Example 13] | 0.63 |
| Nc1nc2cc(-c3cc[nH]n3)ccc2c2c1nc(CN1CC(O)C1)n2C1CC1 [Example 16] | 4.8 |
| CC1(O)CN(Cc2nc3c(N)nc4cc(-c5cc[nH]n5)ccc4c3n2C2CCC2)C1 [Example 17] | 2.2 |
| Nc1nc2cc(-c3cc[nH]n3)ccc2c2c1nc(CN1CC(F)C1)n2C1CC1 [Example 10] | 0.25 |
| Nc1nc2cc(-c3cc[nH]n3)ccc2c2c1nc(CN1CC3(CCCO3)C1)n2C1CC1 [Example 14] | 1.61 |
| Nc1nc2cc(-c3cc[nH]n3)ccc2c2c1nc(CN1CC(F)C1)n2C1CCC1 [Example 6] | 0.26 |
| N#CC1CN(Cc2nc3c(N)nc4cc(-c5cc[nH]n5)ccc4c3n2C2CC2)C1 [Example 12] | 2 |
| CC(C)n1c(CN2CC(C)(O)C2)nc2c(N)nc3cc(-c4cc[nH]n4)ccc3c21 [Example 15] | 1.1 |
| COC1CN(Cc2nc3c(N)nc4cc(-c5cc[nH]n5)ccc4c3n2C2CC2)C1 [Example 5] | 0.27 |

The next compounds have a lower IC50 than those just listed; values first:

| IC50 [µM] | Compound |
| --- | --- |
| 0.2 | Nc1nc2cc(-c3cc[nH]n3)ccc2c2c1nc(CN1CC(F)(F)C1)n2C1CCC1 [Example 8] |
| 0.08 | Nc1nc2cc(-c3cc[nH]n3)ccc2c2c1nc(CN1CC(F)(F)C1)n2CC(F)F [Example 2] |
| 0.22 | COC1CN(Cc2nc3c(N)nc4cc(-c5cc[nH]n5)ccc4c3n2CC(F)F)C1 [Example 7] |
| 0.24 | Nc1nc2cc(-c3cc[nH]n3)ccc2c2c1nc(CN1CC3(CCCO3)C1)n2C1CCC1 [Example 11] |
| 0.12 | COC1CN(Cc2nc3c(N)nc4cc(-c5cc[nH]n5)ccc4c3n2C2CCC2)C1 [Example 1, 1-cyclobutyl-2-[(3-methoxyazetidin-1-yl)methyl]-7-(1H-pyrazol-5-yl)-1H-imidazo[4,5-c]quinolin-4-amine] |
| 0.18 | Nc1nc2cc(-c3cc[nH]n3)ccc2c2c1nc(CN1CCC1)n2C1CC1 [Example 4] |
| 0.22 | Nc1nc2cc(-c3cc[nH]n3)ccc2c2c1nc(CN1CC(F)C1)n2CC(F)F [Example 3] |

molecular target: T2, human TLR8 (Homo sapiens, UniProt Q9NR97); assay: In vitro human TLR8 reporter assay (HEK-Blue cells, NF-kB/AP1-inducible SEAP); assay type: cell-based; conditions: HEK-Blue cells expressing TLR8, SEAP reporter; read-out: TLR8 Agonist EC50
T2 construct: host or cells: HEK-Blue cells (human HEK) co-expressing TLR8 and an NF-kB/AP1-inducible SEAP reporter
T2 sequence (Q9NR97 27-1041): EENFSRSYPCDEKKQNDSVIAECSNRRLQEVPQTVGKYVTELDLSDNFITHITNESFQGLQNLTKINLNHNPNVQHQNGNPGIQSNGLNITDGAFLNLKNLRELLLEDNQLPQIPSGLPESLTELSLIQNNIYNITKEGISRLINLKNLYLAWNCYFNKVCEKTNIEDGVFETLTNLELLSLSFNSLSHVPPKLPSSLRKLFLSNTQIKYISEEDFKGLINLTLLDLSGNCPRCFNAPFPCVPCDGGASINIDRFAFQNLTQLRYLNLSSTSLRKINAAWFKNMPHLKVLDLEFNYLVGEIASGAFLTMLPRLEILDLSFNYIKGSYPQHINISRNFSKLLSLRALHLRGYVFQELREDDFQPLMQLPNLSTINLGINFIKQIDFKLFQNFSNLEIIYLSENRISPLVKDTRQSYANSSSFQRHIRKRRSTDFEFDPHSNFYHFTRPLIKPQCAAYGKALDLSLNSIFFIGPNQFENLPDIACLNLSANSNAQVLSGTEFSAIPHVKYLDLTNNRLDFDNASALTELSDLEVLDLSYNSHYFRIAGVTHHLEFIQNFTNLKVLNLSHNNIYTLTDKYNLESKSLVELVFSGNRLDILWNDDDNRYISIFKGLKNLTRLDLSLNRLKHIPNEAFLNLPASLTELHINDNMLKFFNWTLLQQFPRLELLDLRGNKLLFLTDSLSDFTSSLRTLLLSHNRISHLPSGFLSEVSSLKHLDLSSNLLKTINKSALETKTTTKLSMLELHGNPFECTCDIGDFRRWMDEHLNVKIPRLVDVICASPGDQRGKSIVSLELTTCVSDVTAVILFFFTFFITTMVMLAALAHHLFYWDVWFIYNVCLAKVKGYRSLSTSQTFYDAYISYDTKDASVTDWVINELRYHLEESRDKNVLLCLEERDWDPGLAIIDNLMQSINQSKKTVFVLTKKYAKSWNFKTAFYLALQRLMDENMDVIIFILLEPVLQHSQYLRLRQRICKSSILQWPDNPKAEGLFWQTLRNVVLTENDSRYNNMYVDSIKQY
Procedure: In Vitro Human TLR7 and TLR8 Binding Reporter Assays
Logarithmically-growing human HEK-Blue cells co-expressing a TLR7 or TLR8 gene and a NF-kB/AP1-inducible SEAP (secreted embryonic alkaline phosphatase; Invivogen, San Diego, Calif.) reporter gene are added to individual wells of a 384-well plate (15,000 cells per 20 μL per well) and maintained for 24 h at 37° C., 5% CO2. Test compounds or DMSO are distributed to separate wells the next day using acoustic liquid handling technology (100 nL per well) and cells are subsequently incubated for 18 h at 37° C., 5% CO2. Cellular SEAP production is measured using an Envision plate reader instrument thirty minutes after adding freshly-made Quanti-Blue reagent (prepared by following manufacturer instructions; Invivogen, San Diego, Calif.) to the HEK-Blue TLR Nf-kB-SEAP cell reactions. All EC50 values (half-maximal effective concentration) are determined using proprietary data analysis software. Normalized EC50 value=absolute value determined by setting 100% Ymax using a reference standard RLU (relative light unit) values from cells treated with 50 μM of the reference standard.

| EC50 [µM] | Compound |
| --- | --- |
| 1 to 20 | Nc1nc2cc(-c3cc[nH]n3)ccc2c2c1nc(CN1CC(F)(F)C1)n2CC(F)F [Example 2] |

Source: US12201627B2, “NLRP3 modulators” (Innate Tumor Immunity, Inc., priority 2018, dated 2025)
